Measured values published in patent US20090182011A1, “Chimeric Nitrate Esters and Use of the Same in a Treatment for Depression” (UNIVERSITY OF ILLINOIS CHICAGO, priority 2008, published 2009).

How the values were obtained:
[1] = NO-fluoxetine bioactivation in phosphate buffer; assay type: physicochemical; details: 50 mM phosphate buffer solutions pH 7.0, 7.4 and 8.0
Experimental: In Phosphate buffer saline A stock solution of NO-fluoxetine was prepared by dissolving 1 mg of the compound in 100 μL MeOH (21 mM). An aliquot (10 μL) of the stock solution was added to 990 μL of 50 mM phosphate buffer (pH 7.4) at 22° C., and the formation of fluoxetine was monitored by reverse phase HPLC using 4.6 mm×150 mm C18 column at a flow rate of 1.0 mL/min. The mobile phase contained 60% acetonitrile content, which was increased to 90% over 5 min. After the phase was held 90% for 5 min, the acetonitrile was reduced to 60% in 5 min. Formation of fluoxetine in buffers was positively identified by comparing retention time and the LC-MS (electrospary ionization) protonated [M+H]+ molecular ion (m/z 310) of the authentic sample. Fluoxetine formation was monitored every 15 min and percentage of fluoxetine formation was obtained with respect to time. Kinetic experiments were performed in 50 mM phosphate buffer solutions (pH 7.0, pH 7.4, and pH 8.0).
Formation of fluoxetine in buffer was positively identified by comparison to the retention time and the LC-MS (electrospary ionization) protonated [M+H]+ molecular ion (m/z 310) of an authentic fluoxetine sample.
Kinetic studies for the degradation of NO-fluoxetine were performed by monitoring the production of fluoxetine every 15 min in different pH buffer solutions (See FIG. 1).

[2] = NO-fluoxetine bioactivation in rat liver microsomes; assay type: in vitro ADME; details: 0.25 mM substrate, NADPH, 30 min, 37° C.
Experimental: In rat liver microsomes A solution containing substrate (0.25 mM), rat liver microsomes (3 nmol of P450/0.5 mL), and NADPH (2 mM) in 50 mM phosphate buffer (pH 7.4, 0.5 mL total volume) was incubated for 30 min at 37° C. The reaction was quenched by addition of acetonitrile and centrifugation for 10 min. The solution was filtered and injected to HPLC.

[3] = NO-fluoxetine bioactivation in rat plasma; assay type: in vitro ADME; details: 0.25 mM substrate, 30 min, 37° C.
Experimental: In plasma A solution containing substrate (0.25 mM) and rat plasma (0.1 mL) was incubated for 30 min at 37° C. The reaction was quenched by addition of acetonitrile and centrifugation for 10 min. The solution was filtered and injected to HPLC.

[4] = NOx detection (NO analyzer, Griess assay); details: incubated with GSH
Experimental: NOx detection A degassed solution containing NO-fluoxetine (0.5 mM), and cysteine (5 mM) or GSH (5 mM) in 50 mM phosphate buffer (pH 7.4, 1 mL total volume) was incubated for 30 min at 37° C. After 30 min, nitric oxide was detected using an NO analyzer, and nitrite and nitrate was detected using Griess assay.

male Sprague Dawley rats = test: Modified forced swimming test; assay type: in vivo, rat; details: 26.5 mg/kg i.p. 23.5, 5 and 1 hour before the test
Experimental: Modified forced swimming test This test was performed using male Sprague Dawley rats weighing 200-250 g. Rats were trained to swim in the water tank for 15 minutes 24 hour before the test. NO-Fluoxetine was administered by i.p. injections 23.5, 5, and 1 hour before the test at a dose of 26.5 mg/kg, which is equimolar to 20 mg/kg fluoxetine. NO-fluoxetine was freshly prepared in an emulsion formed of 5% Tween 80. The test was performed by putting the rats in a water tank consisting of an acrylic cylinder (22 cm diameter, 30 cm water depth, 25° C. water temperature) for 5 minutes. The 5 minute test was divided into 60 blocks of 5 seconds each. The major behavior in each 5 sec block was assigned for the whole block, including climbing, swimming, and immobile. The blocks representing different behaviors were counted.
In vivo NO-fluoxetine (26.5 mg/kg equimolar to 20 mg/kg fluoxetine) given by i.p. injections 23.5, 5, and 1 hour before the test was active in the modified forced swimming test, showing an increase in the swimming behaviour and a decrease in the immobility behaviour. Sub-acute injection of NO-fluoxetine provides sufficient time for the bioactivation of NO-fluoxetine and the subsequent release of fluoxetine.
Values presented as mean±SEM, n=6 per group. The data were statistically evaluated by ANOVA, followed by Turkey post-hoc test.

male C57BL/6 mice = test: Step-through passive avoidance (STPA) task, scopolamine induced memory impairment; details: for effect on 48 h retention (scopolamine induced long term memory impairment): 4.5 umole/kg i.p. 20 minutes before training (NO-fluoxetine 2.05 mg/kg, fluoxetine 1.54 mg/kg), scopolamine 1 mg/kg
Experimental: Step-through passive avoidance (STPA) task This test was performed on male C57BL/6 mice (from Charles River's Laboratories), 8-10 weeks of age and weighing 22-27 g. The mice were kept under standardized laboratory conditions (temperature 21±1° C., humidity 50-60%) with free access to food and tap water in a room with a natural light-dark cycle.
Avoidance experiment was divided into 3 phases: habituation, training, and retention. The apparatus used consisted of a box divided into 2 compartments, an illuminated compartment adjacent to a dark compartment, the floor consisted of an electric grid controlled by a switch that can deliver an electric shock only to the dark compartment. A doorway was located at floor level in the center of the connecting wall; the door was closed once the mouse enters the dark compartment. The habituation phase was performed by individually putting the mice in the light compartment; the door was closed once the mouse enters the dark compartment (without an electric shock), left there for 15 seconds before being returned to its cage. The time (latency) to enter the dark box was recorded for each mouse; only mice scoring less than 30 seconds for three consecutive times were allowed to pass for the training phase. Training phase was performed 2 hours after the habituation phase by individually placing the mice again in the illuminated compartment but an electric shock (0.6 mA for 2 s) was delivered immediately after the mouse entered the dark compartment accompanied by the door closure. Trial was repeated for a maximum of 5 trials or until the mouse remained in the light compartment for 300 seconds in one of the trials. During the training phase, the number of trials and the time (latency) to enter the dark compartment was scored. Mice that entered the dark compartment in the fifth trial in less than 300 seconds were eliminated from the experiment. Forty-eight hours after the training trial, a retention test was conducted in which the same animals were put into the illuminated box and again the latency to enter the dark box was recorded. The retention trial ended when the mouse entered the dark box or 300 s had elapsed, whichever occurred first. Scopolamine (1 mg/kg) dissolved in physiological saline water was administered by i.p. injection 30 minutes before the training phase and drugs dissolved in 25% DMSO were administered by i.p. injection 20 minutes before the training.
The data were statistically evaluated by one way ANOVA, followed by Tukey post-hoc test.

Row | SMILES | conversion in buffer [1] | product of reaction with rat liver microsomes [2] | product of reaction with plasma [3] | nitric oxide release [4] | activity in the modified forced swimming test (male Sprague Dawley rats) | immobility behaviour (male Sprague Dawley rats) | swimming behaviour (male Sprague Dawley rats) | effect on 48 h retention (scopolamine induced long term memory impairment) (male C57BL/6 mice) | animals that failed to learn the STPA task during the training phase (male C57BL/6 mice; 4.5 umole/kg i.p. 20 minutes before training)
1 | CN(CCC(Oc1ccc(C(F)(F)F)cc1)c1ccccc1)C(=O)SCCO[N+](=O)[O-] (stereo not shown) [NO-fluoxetine] | converted to fluoxetine | generated fluoxetine as the major product | generated fluoxetine as the major product | released nitric oxide | active | decrease | increase | reversed the scopolamine induced long term memory impairment | 
2 | CNCCC(Oc1ccc(C(F)(F)F)cc1)c1ccccc1 (stereo not shown) [fluoxetine] |  |  |  |  |  |  |  | did not have an effect | 5 of 12 and zero
